One data set deals with MM.1S cells. The experiment in a line: Proliferation assay (3H-thymidine incorporation), MM.1S. In kind it is cell-based, human. To be noted: 48 hours. On the procedure: (§1) DNA synthesis was measured by ^3H-thymidine incorporation (3H-TdR; NEN Products, Zaventem, Belgium). Cells were pulsed with ^3H-thymidine (1 μCi/well) during the last 8 hours of culture, harvested onto glassfibre filter mats (Wallac, Gaithersburg, Md.) with an automatic cell harvester (Tomtec Harvester 960 MachIII), and counted using Wallac TriLux Beta plate scintillation counter. All experiments were performed in triplicate.

The test system of the next data set is OPM2 cells. The experiment in a line: Proliferation assay (3H-thymidine incorporation), OPM2. It is filed as cell-based, human. To be noted: 48 hours. On the procedure:
as §1
A general note: Dividing cells build labelled thymidine or BrdU into new DNA.

A further data set concerns RPMI-8226 cells. The experiment in a line: Proliferation assay (3H-thymidine incorporation), RPMI-8226. It is filed as cell-based, human. To be noted: RPMI-1822 / RPMI cells as printed, 48 hours. On the procedure: as §1
The subject of data set [1] is non-adherent mononuclear bone marrow cells from healthy donors. It is filed as cell-based. The procedure: (§2) Non-adherent mononuclear cells (10^5 cells/well) from either healthy donor or multiple myeloma patients, as well as purified human CD34^+ cells, were seeded in 96-well multi-plates at 100 μl/well in α-MEM medium containing 20% horse serum, 10 ng/ml M-CSF and 50 ng/ml RANKL. […] Half media change was carried out twice a week.
(§3) The culture was incubated for a total of 3 weeks at 37° C. in an incubator of 5% CO2-air. OCL formation was assessed by staining with monoclonal antibody 23c6, which recognizes the CD51/61 dimer on the osteoclast vitronectin receptor (generously provided by Michael Horton, Rayne Institute, Bone and Mineral Center, London, UK), using a Vectastatin-ABC-AP kit (Vector Laboratories, Inc. Burlingame, Calif.). The 23c6^+ multinucleated osteoclasts containing 3 or more nuclei per osteoclast were scored using an inverted microscope. For RAW 264.7 cells, OCL differentiation assay was carried out in 96-well plates. […] Half media change was performed every 2-3 days by replacing with fresh medium containing RANKL with or without tested drugs. Cells were fixed and stained with TRAP-staining kit (Sigma-Aldrich) according to the manufacturer's instructions. TRAP-positive multinuclear cells (>3 nuclei) were counted under the inverted microscope.

Data set [2] deals with non-adherent mononuclear bone marrow cells from multiple myeloma patients. The experiment in a line: Osteoclast formation assay, MM patient bone marrow. In kind it is cell-based, human. On the procedure: as §2, §3
Data set [3] has as its system CFU-GM colony cells (osteoclast precursors). The experiment in a line: Osteoclast formation assay with purified CFU-GM cells. In kind it is cell-based, human.
Data set [4] has as its system bone marrow cells from healthy donor on whale dentin slices. The experiment in a line: Osteoclastic bone resorption on dentin slices. In kind it is cell-based, human. To be noted: 3 weeks. On the procedure: Bone marrow cells from healthy donor (2×10^5 cells/well) were seeded on whale dentin slices in 96-well multi-plates at 100 μl/well in α-MEM medium containing 20% horse serum. In addition, 10 ng/ml M-CSF and 50 ng/ml RANKL were added. Half media changes were performed twice a week with fresh media. […] Culture was continued for 3 weeks at 37° C. in an incubator of 5% CO2-air. After 3 weeks, dentin slices were stained with TRAP staining to confirm the osteoclast formation. Then, bone resorption lacunae were stained with hematoxylin. Pit area was quantified by using the public domain NIH ImageJ program. Fixed small representative areas on dentin slices selected and the mean resorption areas were determined.

Data set [5] has as its system CD34+ cells (hematopoietic progenitors). The experiment in a line: Colony assays in methylcellulose. It is filed as cell-based, human. Conditions: 14 days. The procedure: Methocult GF H4434 contained the following hematopoietic growth factors: recombinant human (rh) Erythropoietin 3 U/ml, rh SCF 50 ng/ml, rh granulocyte-macrophage colony-stimulating factor (GM-CSF) 10 ng/ml, and rh IL-310 ng/ml as well as Methylcellulose (1%), Fetal Bovine Serum 30%, Bovine Serum Albumin (1%), 2-Mercaptoethanol ([…]), and L-glutamine (2 mM). Cells were incubated in at 37° C., 5% CO2 with 95% humidity for 14-16 days. Formation and relative distribution of burst forming unit-erythroid (BFU-E), colony forming unit-macrophages (CFU-M) and colony forming unit-granulocyte, macrophage (CFU-GM) colonies were evaluated by scoring under an inverted microscope. Each colony experiment was carried out in triplicate.

Data set [6] concerns MC-42 cells (MC3T3-E1 pre-osteoblastic). The experiment in a line: Osteoblast differentiation: ALP activity. In kind it is cell-based, mouse. Conditions: SDX-101 75 μM, SDX-308 7.5 μM, 24 hours. From the text: (§4) Cells were then harvested for luciferase and ALP (alkaline phosphatase) activity assay. Luciferase and ALP activity were normalized to total protein content of the sample (Xiao G et al. (1997) Mol. Endocrinol. 11:1103-13). […] Samples were then stained using the Von Kossa method (Xiao G et al. (1998) J. Biol. Chem. 273:32988-94).

The next data set deals with MC-42 cells. The experiment in a line: Osteoblast mineralization (von Kossa). It is filed as cell-based, mouse. Conditions: 48 hours, 5.0 mM inorganic phosphate.
Source text: as §4

Another data set has as its system MIP-1α. The experiment in a line: Bio-plex cytokine assay of osteoclast culture supernatants: MIP-1α. It is filed as cell-based, human. To be noted: day four; controls 12,000. An excerpt:
[…] of IL-1α, IL-1β, IL-2, IL-3, IL-4, IL-5, IL-6, IL-7, IL-8, IL-9, IL-10, IL-13, IL-15, IL-17, IL-12p40, IFNα, IFNγ, TNF-α, TNFR-I, TNFR-II, G-CSF, GM-CSF, MCP-1, MIP-1α, MIP-1β, MIG, IP-10, EOTAXIN, RANTES, DR5, EGF, VEGF, FGF-b, and HGF by Bio-plex Cytokine Assay (BIO-RAD Laboratories, USA).

Another data set has as its system IFN-γ. The experiment in a line: Bio-plex cytokine assay of osteoclast culture supernatants: IFN-γ. It is filed as cell-based, human. To be noted: three weeks treatment. On the procedure:
(§5) Supernatants collected on day 5, 9, 12, 16 and 21 were analyzed for expression of IL-1α, IL-1β, IL-2, IL-3, IL-4, IL-5, IL-6, IL-7, IL-8, IL-9, IL-10, IL-13, IL-15, IL-17, IL-12p40, IFNα, IFNγ, TNF-α, TNFR-I, TNFR-II, G-CSF, GM-CSF, MCP-1, MIP-1α, MIP-1β, MIG, IP-10, EOTAXIN, RANTES, DR5, EGF, VEGF, FGF-b, and HGF by Bio-plex Cytokine Assay (BIO-RAD Laboratories, USA).

The subject of data set [7] is MIG (monokine induced by IFN-gamma). The experiment in a line: Bio-plex cytokine assay of osteoclast culture supernatants: MIG. It is filed as cell-based, human. Conditions: three weeks treatment. On the procedure: as §5
Data set [8] concerns RAW 264.7 cells. The experiment in a line: RANKL-induced OCL differentiation of RAW 264.7 cells (TRAP). In kind it is cell-based, murine. Conditions: 5 days, RANKL 50 ng/ml, SDX-101 75 μM, SDX-308 7.5 μM. On the procedure: as §3
The test system of data set [9] is RAW 264.7 cells. The experiment in a line: Cellular viability of RAW 264.7 cells. It is filed as cell-based, mouse. To be noted: data not shown.
For a further data set, the system named is IκBα. The experiment in a line: Western blot of IκBα phosphorylation and degradation, MM.1S. It is filed as cell-based, human. The procedure:
For detection of p65 translocation, cellular nuclear and cytoplasmic extracts were prepared with Nuclear and Cytoplasmic Extraction Reagents (Pierce, Rockford, Ill.). Cell lysates (20-40 μg) were subjected to 10% sodium dodecyl sulfate-polyacrylamide gel electrophoresis and transferred to PVDF membrane (Millipore, Danvers, Mass.). The blots were probed with anti-p65, anti-phospho p65, anti-IκB-α, anti-phospho IκB-α, or anti-phospho IKK-γ (all from Cell Signaling, Beverly, Mass.), and beta-actin antibody (Amersham, Piscataway, N.J.). Immune complexes were detected using enhanced chemiluminescence (Amersham).
(In general: Immunoblotting shows a protein as a band on a membrane.)

Data set [10] relates to MM cell lines and freshly isolated primary MM cells. To be noted: Yasui H et al., 2005; cited from earlier work.

Regarding `CCc1cccc2c3c([nH]c12)[C@@](CC)(CC(=O)O)OCC3` [SDX-101, R-etodolac], the “concentration at which DNA synthesis (thymidine incorporation) was significantly inhibited” value amounted to 10 µM in the data set on MM.1S cells, 100 µM with OPM2 cells and 100 µM with RPMI-8226 cells. For the same compound, the “doses exhibiting inhibition of OCL formation” value in [1] (3 weeks, RANKL 50 ng/ml, M-CSF 10 ng/ml) was “over 50 μM”. Besides, the “cell death during the 3 week OCL formation assay” value in data set [1] (any doses tested) is “No cell death was observed”. The “inhibition of OCL formation, time course of drug addition” value is on record as “significantly higher when drug was added during the entire 3 weeks” in data set [1] (healthy donor cells, SDX-101 75 μM, SDX-308 7.5 μM, 3 weeks vs first/last 1 or 2 weeks) and “significantly higher when drug was added during the entire 3 weeks” in [2] (MM patient cells, SDX-101 75 μM, SDX-308 7.5 μM, 3 weeks vs first/last 1 or 2 weeks). The “inhibition of RANK-L/M-CSF-induced human osteoclastogenesis” value in data set [1] (healthy donor cultures, 21-day assay, SDX-101 30 to 100 μM, SDX-308 3 to 10 μM) is given as “dose-dependent inhibition”; in data set [2] (MM patient cultures, 21-day assay, SDX-101 30 to 100 μM, SDX-308 3 to 10 μM), “dose-dependent inhibition”. Moreover, in [3] (first 1, 2 or 3 weeks or last 1, 2 or 3 weeks), the “osteoclast inhibition by time point of drug addition” value was “no differences in osteoclast inhibition”. Moreover, in data set [3] (purified CFU-GM cells, 21 days), the “osteoclast numbers formed from osteoclast progenitor cells” value is given as “significantly decreased osteoclast numbers”. Moreover, in data set [4] (75 μM, untreated control 8.6), the “measured bone resorption area” value is on record as 1.3 mm^2. Also, the bone resorption result in data set [4] (SDX-101 75 μM, SDX-308 7.5 μM) is “inhibited significantly”. In addition, the “number of the CFU colonies formed compared to untreated cells” value in data set [5] (CD34+ cells) is “not significantly different”. Further, the “interference with hematopoietic lineage commitment” value in [5] (SDX-101 30, 50, 75 μM, SDX-308 1, 5, 7.5 μM) is on record as “none of the doses tested for both SDX derivatives interferes”. Besides, the ALP activity entry in data set [6] is “did not decrease the ALP activity”. In addition, in the data set on MC-42 cells, the “mineralization of osteoblasts (von Kossa staining)” value is “did not inhibit mineralization”. Moreover, in the data set with MIP-1α, the MIP-1α in supernatant is reported as 6,000 pg/ML. The “IFN-γ secretion in osteoclast formation assays” value in the data set with IFN-γ is “significantly decreased”. Besides, in [7], the “MIG secretion in osteoclast formation assays” value is “significantly decreased”. The “RANKL-induced OCL formation from RAW 264.7 cells” value in the data set on RAW 264.7 cells [8] is listed as “suppressed”. Further, the “cellular viability, drug alone” value in the data set on RAW 264.7 cells [9] was “no significant effects”. In addition, the “TNF-induced IκBα phosphorylation and degradation” value in the data set with IκBα is given as “minor or no obvious effect”. For the same compound, the apoptosis entry in data set [10] is “induces apoptosis”.

Source of the values: patent publication US20070167510A1, “Methods for inhibiting osteoclastogenesis” (priority 2006, published 2007).
